≈ marks a conversion by molar mass, not a printed value. Read-outs that look alike come from different tables or passages of the source.
Legend:
[1] = tested on: clinical strains of S. aureus in the Scottish Clinical Isolates Collection; assay: MIC against collected clinical strains of S. aureus (BSAC03/04/05 (1)-(10)); format: cell-based, Staphylococcus aureus; settings: for MIC: Staphylococcus aureus, read-out: Minimum inhibitory concentrations (MICs)
Excerpt: In particular, minimum inhibitory concentrations (MICs) against microorganisms (e.g. S. Aureus, Streptococcus faecalis, Aspergillus niger, Candida albicans or Mycobacterium fortuitum) for compounds of the invention may be measured using procedures such as those described in A. J. Drummond and R. D. Waigh “The development of microbiological methods for phytochemical screening” Recent Res. Devel. Phytochem. 4, 143-152 (2000), the disclosures of which document are hereby incorporated by reference.
Sample dilutions were typically prepared by dissolving the test sample (2 mg) in sterile water (10 mL) to provide a working concentration of 200 μg/ml. The test wells on each 96 well microtitre plate were initially inoculated with culture medium (100 μL) using Mueller-Hinton Broth for antibacterial assays and Sabouraud Broth for antifungal assays. A solution of each test sample (100 μL) was added to one row of each plate and a series of doubling dilutions made for successive rows. Incubation was at 37° C. for antibacterial assay and 25° C. for antifungal assay. […] From the observed pattern of colour, the MIC was determined. All tests included sterility and growth controls.
BSAC03/04/05 (1)-(10) refer to collected clinical strains of S. aureus in the Scottish Clinical Isolates Collection.

[2] = tested on: Streptococcus faecalis (NCTC 775); assay: MIC, Streptococcus faecalis; format: cell-based; settings: Enterococcus faecalis, NCTC775, read-out: Minimum inhibitory concentrations (MICs), St. faecalis
Method in brief: (§1)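 Broth microdilution with doubling dilutions of compound in Mueller-Hinton Broth, incubated at 37° C. MIC read from the colour pattern in the wells. Sterility and growth controls included.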

[3] = tested on: Staphylococcus aureus Strain 2 (NCTC 6571); assay: MIC, Staphylococcus aureus Strain 2; format: cell-based; settings: Staphylococcus aureus, NCTC6571, read-out: Minimum inhibitory concentrations (MICs), S. aureus 2
Method in brief: as §1

[4] = tested on: Aspergillus niger (IMI 1745); assay: MIC, Aspergillus niger; format: cell-based; settings: Aspergillus niger, read-out: Minimum inhibitory concentrations (MICs), A. niger
[5] = value in parentheses, na = not active

Cn1cc(NC(=O)c2cc(NC(=O)c3ccc(/C=C/c4cnc5ccccc5c4)cc3)cn2C)cc1C(=O)NCCN1CCOCC1 [Example 2, 1-Methyl-4-({[1-methyl-4-({4-[(E)-2-(3-quinolinyl)ethenyl]benzoyl}amino)-1H-pyrrol-2-yl]carbonyl}amino)-N-[2-(4-morpholinyl)ethyl]-1H-pyrrole-2-carboxamide]
MIC ([1]; S. aureus BSAC culture year 2003 number 1): 0.25 µg/mL (≈ 0.396 µM) | MIC ([1]; S. aureus BSAC culture year 2003 number 2): 0.25 µg/mL (≈ 0.396 µM) | MIC ([1]; S. aureus BSAC culture year 2003 number 3): 0.25 µg/mL (≈ 0.396 µM) | MIC ([1]; S. aureus BSAC culture year 2003 number 4): 0.12 µg/mL (≈ 0.19 µM) | MIC ([1]; S. aureus BSAC culture year 2003 number 5): 0.12 µg/mL (≈ 0.19 µM) | MIC ([1]; S. aureus BSAC culture year 2003 number 6): 0.12 µg/mL (≈ 0.19 µM) | MIC ([1]; S. aureus BSAC culture year 2003 number 7): 0.12 µg/mL (≈ 0.19 µM) | MIC ([1]; S. aureus BSAC culture year 2003 number 8): 0.06 µg/mL (≈ 0.095 µM) | MIC ([1]; S. aureus BSAC culture year 2003 number 9): 0.25 µg/mL (≈ 0.396 µM) | MIC ([1]; S. aureus BSAC culture year 2003 number 10): 0.25 µg/mL (≈ 0.396 µM) | MIC ([1]; S. aureus BSAC culture year 2004 number 1): 0.25 µg/mL (≈ 0.396 µM) | MIC ([1]; S. aureus BSAC culture year 2004 number 2): 0.5 µg/mL (≈ 0.791 µM) | MIC ([1]; S. aureus BSAC culture year 2004 number 3): 0.5 µg/mL (≈ 0.791 µM) | MIC ([1]; S. aureus BSAC culture year 2004 number 4): 0.25 µg/mL (≈ 0.396 µM) | MIC ([1]; S. aureus BSAC culture year 2004 number 5): 0.12 µg/mL (≈ 0.19 µM) | MIC ([1]; S. aureus BSAC culture year 2004 number 6): 0.25 µg/mL (≈ 0.396 µM) | MIC ([1]; S. aureus BSAC culture year 2004 number 7): 0.12 µg/mL (≈ 0.19 µM) | MIC ([1]; S. aureus BSAC culture year 2004 number 8): 0.25 µg/mL (≈ 0.396 µM) | MIC ([1]; S. aureus BSAC culture year 2004 number 9): 0.12 µg/mL (≈ 0.19 µM) | MIC ([1]; S. aureus BSAC culture year 2004 number 10): 0.12 µg/mL (≈ 0.19 µM) | MIC ([1]; S. aureus BSAC culture year 2005 number 1): 0.25 µg/mL (≈ 0.396 µM) | MIC ([1]; S. aureus BSAC culture year 2005 number 2): 1 µg/mL (≈ 1.58 µM) | MIC ([1]; S. aureus BSAC culture year 2005 number 3): 0.12 µg/mL (≈ 0.19 µM) | MIC ([1]; S. aureus BSAC culture year 2005 number 4): 0.25 µg/mL (≈ 0.396 µM) | MIC ([1]; S. aureus BSAC culture year 2005 number 5): 0.25 µg/mL (≈ 0.396 µM) | MIC ([1]; S. aureus BSAC culture year 2005 number 6): 0.12 µg/mL (≈ 0.19 µM) | MIC ([1]; S. aureus BSAC culture year 2005 number 7): 0.25 µg/mL (≈ 0.396 µM) | MIC ([1]; S. aureus BSAC culture year 2005 number 8): 0.5 µg/mL (≈ 0.791 µM) | MIC ([1]; S. aureus BSAC culture year 2005 number 9): 0.25 µg/mL (≈ 0.396 µM) | MIC ([1]; S. aureus BSAC culture year 2005 number 10): 0.12 µg/mL (≈ 0.19 µM) | microbicidal activity against a number of different strains of Staphylococcus aureus ([1]; result in words): displayed microbicidal activity | MIC [2, 5]: 25 µg/mL | MIC ([2]; value outside parentheses): 33.5 µM | MIC [3, 5]: 0.25 µg/mL | MIC ([3]; value outside parentheses): 0.32 µM | MIC [4, 5]: 50 µg/mL | MIC ([4]; value outside parentheses): 67 µM

Source: US8012967B2, “Minor groove binders” (University of Strathclyde, priority 2006, dated 2011)
